This note sets out measurements from PMC12483217, “Exploring β-catenin and TCF4 interaction in complex environments by means of novel biosensing platform focal molography” (PLOS One, 2025).

Where a SMILES comes first, the peptide text is derived from it. Where no end group is shown, it is not given here. The star is where a group is joined. Biotin = O=C1N[C@H]2[C@H](CS[C@H]2CCCCC(=O)*)N1

Assay [1] concerns the target T1, Human β-catenin (Homo sapiens, UniProt P35222).
T1 construct: Variant: β-catenin (human) (Hs134–670)+TCF4(Hs1–53); purchased Proteros Biostructures
T1 sequence (P35222 134-670): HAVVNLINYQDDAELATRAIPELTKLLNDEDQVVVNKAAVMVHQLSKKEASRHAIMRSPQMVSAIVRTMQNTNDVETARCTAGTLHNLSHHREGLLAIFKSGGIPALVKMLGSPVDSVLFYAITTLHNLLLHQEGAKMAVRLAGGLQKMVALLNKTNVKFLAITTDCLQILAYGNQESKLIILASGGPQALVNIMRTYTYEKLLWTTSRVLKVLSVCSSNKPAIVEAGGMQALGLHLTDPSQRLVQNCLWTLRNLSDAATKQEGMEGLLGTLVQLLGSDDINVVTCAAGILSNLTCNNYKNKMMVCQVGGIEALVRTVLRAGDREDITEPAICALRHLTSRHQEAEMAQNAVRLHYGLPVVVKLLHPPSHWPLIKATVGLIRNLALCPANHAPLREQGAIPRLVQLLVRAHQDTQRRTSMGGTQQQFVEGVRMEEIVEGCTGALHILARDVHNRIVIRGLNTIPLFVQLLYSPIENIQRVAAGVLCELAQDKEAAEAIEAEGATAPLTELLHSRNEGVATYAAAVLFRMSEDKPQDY
Briefly: SPR competition: free TCF4(7–51) with 250 nM β-catenin over immobilised TCF4(7–30), buffer. It counts as binding. As to conditions: buffer pH 7.4, 95% confidence interval of fit. On the procedure: (§1) For all SPR experiments, the running buffer consisting of 10 mM HEPES, 150 mM NaCl, 0.01% (v/v) P20, 1% (v/v) glycerol, 0.01% (v/v) BSA and 2% (v/v) DMSO at pH 7.4 was used. The TCF(7–30) peptide ([…]-K-biotin-amide) peptide was obtained from Biosyntan GmbH. Experiments were conducted at room temperature on a Biacore T200 (GE Healthcare, Uppsala, Sweden). The peptide was immobilized onto a Series S sensor chip SA (10352113, Cytiva, Uppsala, Sweden). Following the manufacturer’s protocol, the sensor was first prepared, and the peptide was injected at a concentration of 10 nM at a flow rate of 10 µL/min. Immobilization was achieved via biotin-streptavidin interaction to a level of 5, 25 and 50 RU in three different flow channels respectively. […] Binding analysis was monitored on all four flow channels with sample association time of one minute and dissociation time of four minutes at a flow rate of 50 µL/min. […]
(§2) The equilibrium dissociation constant (KD) and half maximal inhibitory concentration (IC50) were determined from binding signals collected in direct binding and competition experiments, respectively. […]
(§3) The SPR data was visualized and analyzed using GraphPad Prism 10.0.0 (Boston, Massachusetts USA, www.graphpad.com). For SPR analysis, signals recorded on the active surfaces were referenced with signals from the reference channel. […]

Assay [2] concerns the target T1, Human β-catenin. Briefly: Focal molography (FM) competition: free TCF4(7–51) with 250 nM β-catenin over TCF4(7–30) sensor, buffer. The note with it: range over 3 sensors x 3 runs. It counts as binding. On the procedure: (§4) FM experiments were conducted using a prototype FM reader from the “Fermi” generation developed by lino Biotech AG (Supplementary Figure 10 S1 File). The flow channel shape was hexagonal (Supplementary Figure 9 A&C S1 File) and the parallel region measured 12.0 x 1.9 x 0.1 mm. Only 18 molograms were recorded per measurement in order to save computing power for faster sampling rates of the intensities of the single molograms. Thus, the lower part of the double flow chamber was used. In all FM experiments, the same running buffer as in SPR was used. Samples in glass vials were injected from the autosampler (Alias, Spark Holland) and transferred with a syringe pump (Precision Syringe Drive/4, Hamilton) to the flow channel for 17 seconds at a flow rate of 400 µL/min (sample delivery step). […] During the association phase, the sample was passed through the flow chamber for one minute at a flow rate of 50 µL/min. To prevent the recording of the dilutive end of the sample, a fast flow rate of 500 µL/min was applied for two minutes to record the dissociation phase, followed by additional two minutes at a flow rate of 50 µL/min. For the regeneration, regeneration solution was injected from glass vials into the autosampler loop. The regeneration solution was passed through the flow chamber for three minutes at a flow rate of 100 µL/min.
(§5) A sensor chip of FM measured 9 x 18 mm. […]

Assay [3] addresses T1, Human β-catenin. In words: Focal molography (FM) competition: free TCF4(7–51) with 250 nM β-catenin over TCF4(7–30) sensor, RKO cell lysate. It counts as binding. As to conditions: cell lysate 1 Mio cells/mL. Here is the method: as §4
A sensor chip of FM measured 9 x 18 mm. The sensing area per mologram was 400 x 400 µm with 54 molograms (6 x 9 array) being present on one sensor chip. The center to center spacing of molograms in flow direction was 690 µm and 750 µm perpendicular to the flow. The sensors used in FM were manufactured and treated following published manufacturing protocols with the difference that the photoprotective PhSNPPOC group was replaced by a more hydrophilic PySNPPOC group. To activate the ridges using reactive immersion lithography, a phase mask was placed on the surface with a layer of 0.1% (v/v) hydroxyl amine in DMSO applied in between the mask and the sensor surface. The chip was exposed at 405 nm at a dose of 4000 mJ/cm^2 with a custom-built setup. Following exposure, the chip was incubated in 1 mM methyltetrazine-4-polyethyleneglycol-N-Hydroxysuccinimide (MeTz-PEG4-NHS) dissolved in HBST (10 mM HEPES, 150 mM NaCl, 0.05% (v/v) Tween20, pH 8.0) for 1 hour. After incubation, the chip was washed sequentially with 50:50 H2O/DMSO, DMSO, Isopropanol and H2O. Next, the entire chip surface, including the grooves, was activated by flood illumination with a dose of 18 J/cm^2. The chip was washed sequentially with 50:50 MQ H2O/DMSO, DMSO, Isopropanol and MQ H2O. As a final step, the chip was incubated with 10 mM tetrazine (Tz)-PEG5-NHS in HBST (10 mM HEPES, 150 mM NaCl, 0.05% (v/v) Tween20, pH 8.0) for 1 hour and washed with isopropanol and H2O. […]

In assay [4] the target is T1, Human β-catenin. Briefly: SPR direct binding of β-catenin to immobilised biotinylated TCF4(7–30) in buffer. As to conditions: only one Hill slope. Here is the method: as §1, §2, §3
Assay [5] concerns the target T1, Human β-catenin. Briefly: Focal molography (FM) direct binding of β-catenin to immobilised TCO-TCF4(7–30), buffer. The note with it: range over 3 sensors x 3 runs. Here is the method:
as §4, §5

The target in assay [6] is T1, Human β-catenin. In words: Focal molography (FM) direct binding of β-catenin to immobilised TCO-TCF4(7–30), RKO cell lysate. The note with it: cell lysate 1 Mio cells/mL, range over sensors and runs. Here is the method: as §4, §5
The target in another assay is T2, beta-catenin (Homo sapiens, UniProt P35222).
T2 chain: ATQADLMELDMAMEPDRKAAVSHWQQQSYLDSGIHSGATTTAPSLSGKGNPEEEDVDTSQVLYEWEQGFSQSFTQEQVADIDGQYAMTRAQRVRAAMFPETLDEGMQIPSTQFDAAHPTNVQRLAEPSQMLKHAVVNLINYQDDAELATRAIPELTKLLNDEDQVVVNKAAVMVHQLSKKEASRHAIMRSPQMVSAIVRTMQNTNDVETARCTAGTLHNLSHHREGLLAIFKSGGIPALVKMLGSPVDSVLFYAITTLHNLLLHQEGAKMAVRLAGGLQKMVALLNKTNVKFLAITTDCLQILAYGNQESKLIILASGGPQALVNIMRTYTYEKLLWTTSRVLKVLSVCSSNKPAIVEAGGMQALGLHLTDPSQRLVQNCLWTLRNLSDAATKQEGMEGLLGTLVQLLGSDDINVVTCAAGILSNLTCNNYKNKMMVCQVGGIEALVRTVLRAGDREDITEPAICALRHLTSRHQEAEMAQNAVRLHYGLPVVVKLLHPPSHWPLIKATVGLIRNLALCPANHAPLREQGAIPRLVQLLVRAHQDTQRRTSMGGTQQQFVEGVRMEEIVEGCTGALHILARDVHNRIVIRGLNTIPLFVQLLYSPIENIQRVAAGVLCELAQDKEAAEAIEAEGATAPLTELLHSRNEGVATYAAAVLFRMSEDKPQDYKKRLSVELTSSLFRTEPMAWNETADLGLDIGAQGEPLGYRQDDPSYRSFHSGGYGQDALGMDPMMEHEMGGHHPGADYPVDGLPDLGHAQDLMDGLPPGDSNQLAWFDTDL
In words: SPR. For orientation: SPR reads the build-up and loss of mass on a sensor chip optically.

“GGGDDLGANDELISFKDEGEQEEKSSENSSAERDLADVKSSLVNE [TCF4(7–51)]”: the half-inhibitory concentration (IC50) (as a rule, the concentration that gives 50% inhibition) on Human β-catenin [1] was 95 to 115 nM; at Human β-catenin [2] it was 110 to 200 nM; on Human β-catenin [3] (Sensor 1, average of three runs, SD, read-out: IC50, Average ± SD), 170 nM; on Human β-catenin [3] (Sensor 2, average of three runs, SD, read-out: IC50, Average ± SD), 160 nM; at Human β-catenin [3] (Sensor 3, average of three runs, SD, read-out: IC50, Average ± SD), 140 nM; on Human β-catenin [3] (range over sensors and runs, read-out: IC50), 140 to 170 nM.

In the case of `CC[C@H](C)[C@H](NC(=O)[C@H](CC(C)C)NC(=O)[C@H](CCC(=O)O)NC(=O)[C@H](CC(=O)O)NC(=O)[C@H](CC(N)=O)NC(=O)[C@H](C)NC(=O)CNC(=O)[C@H](CC(C)C)NC(=O)[C@H](CC(=O)O)NC(=O)[C@H](CC(=O)O)NC(=O)CNC(=O)CNC(=O)CN)C(=O)N[C@@H](CO)C(=O)N[C@@H](Cc1ccccc1)C(=O)N[C@@H](CCCCN)C(=O)N[C@@H](CC(=O)O)C(=O)N[C@@H](CCC(=O)O)C(=O)NCC(=O)N[C@@H](CCC(=O)O)C(=O)N[C@@H](CCC(N)=O)C(=O)N[C@@H](CCC(=O)O)C(=O)N[C@@H](CCC(=O)O)C(=O)N[C@@H](CCCCN)C(=O)N[C@@H](CCCCNC(=O)CCCC[C@@H]1SC[C@@H]2NC(=O)N[C@@H]21)C(N)=O` [biotinylated TCF4(7–30)] (H-GGGDDLGANDELISFKDEGEQEEKK(Biotin)-NH2; N-terminus assumed), the “Hill slope of the dose-response” value on Human β-catenin [4] turned out to be 1.21.

For `CC[C@H](C)[C@H](NC(=O)[C@H](CC(C)C)NC(=O)[C@H](CCC(=O)O)NC(=O)[C@H](CC(=O)O)NC(=O)[C@H](CC(N)=O)NC(=O)[C@H](C)NC(=O)CNC(=O)[C@H](CC(C)C)NC(=O)[C@H](CC(=O)O)NC(=O)[C@H](CC(=O)O)NC(=O)CNC(=O)CNC(=O)CN)C(=O)N[C@@H](CO)C(=O)N[C@@H](Cc1ccccc1)C(=O)N[C@@H](CCCCN)C(=O)N[C@@H](CC(=O)O)C(=O)N[C@@H](CCC(=O)O)C(=O)NCC(=O)N[C@@H](CCC(=O)O)C(=O)N[C@@H](CCC(N)=O)C(=O)N[C@@H](CCC(=O)O)C(=O)N[C@@H](CCC(=O)O)C(=O)N[C@@H](CCCCN)C(=O)O` [TCF4(7–30)] (H-GGGDDLGANDELISFKDEGEQEEK-OH), the dissociation constant (Kd) (as a rule, the equilibrium constant for the complex coming apart) lay in the range of 68 to 160 nM on Human β-catenin [5] and 100 to 140 nM on Human β-catenin [6].

B1: TCF4 peptide TCF(7-51) 7-51 (peptide)
chain: GGGDDLGANDELISFKDEGEQEEKSSENSSAERDLADVKSSLVNE
Turning to B1, the equilibrium dissociation constant (Kd) in the assay with beta-catenin was approximately 108 nM.
